Measured values published in patent publication US20100150930A1, “MAGE-11 AS A MARKER FOR ENDOMETRIAL RECEPTIVITY TO EMBRYO TRANSPLANTATION AND A MARKER AND THERAPEUTIC TARGET IN CASTRATION-RECURRENT PROSTATE CANCER” (The University of North Carolina at Chapel Hill, priority 2007, published 2010).

Key:
[1] = system: MAGE-11 mRNA; assay: MAGE-11 mRNA by real-time PCR in ECC-1 cells; format: cell-based, human; details: for change in MAGE-11 mRNA levels: 100 Units/ml hCG, 10 nM progesterone, 10 nM DHT or 10 ng/ml EGF
Procedure: (§1) For MAGE-11 and AR mRNA in the human endometrial ECC-1 and Ishikawa cell lines, cells were passed 4 days prior to each experiment into medium without phenol red containing 5% charcoal stripped serum (Atlanta Biologicals, Lawrenceville, Ga.). […] RNA was extracted using RNeasy Plus Mini kit (Qiagen, Valencia, Calif.) and cDNA prepared from 4 μg total RNA as above. β-Glucuronidase (GusB) forward primer 5′-[…]-3′ (SEQ ID NO:4) and reverse primer 5′-[…]-3′ (SEQ ID NO:5) amplify a 65 by region coding for amino acid residues 120-140. The 5′-[…]-3′ (SEQ ID NO:6) GusB probe overlaps the exon 2 and 3 boundary. PCR was carried out in 20 μl reactions containing cDNA from 0.4 μg total RNA, 4 μl LightCycler TaqMan Master mix (Roche, Indianapolis, Ind.) and 0.5 μl 20× TaqMan Mix (Applied Biosystems, Foster City, Calif.) for AR or MAGE-11, or 0.5 μM primer and 0.2 μM probe for GusB. PCR reactions were 1 cycle at 95° C. for 10 min followed by 55 cycles of 95° C. for 15 sec, 60° C. for 25 sec and 72° C. for 1 sec in a Roche Lightcycler. […] Results were averaged from duplicates of 6 or 10 cm dishes of ECC-1 or Ishikawa cell cultures.

[2] = system: MAGE-11 mRNA; assay: MAGE-11 mRNA by real-time PCR in Ishikawa cells; format: cell-based, human; details: for change in MAGE-11 mRNA levels: 100 Units/ml hCG, 10 nM progesterone, 10 nM DHT or 10 ng/ml EGF
Procedure: as §1

[3] = system: Flag-MAGE-11; details: COS cells, with wild-type AR, 2 and 10 nM DHT, 24 h
[4] = system: AR mRNA; assay: AR mRNA by real-time PCR in ECC-1 cells; format: cell-based, human
Procedure: as §1

[5] = system: PR-B; assay: PR immunoblot in ECC-1 cells; format: cell-based, human; details: 10 nM E2 for 48 h
Procedure: (§2) Immunoblot analysis. MAGE-11, AR, PR and ERα protein levels in ECC-1 (2×10^6/6 cm dish) and Ishikawa cells (4×10^6/10 cm dish) were determined by immunoblot. Cells were plated in medium without phenol red containing 5% charcoal stripped serum after culturing in the same media for 4 days. Cells were treated, washed and harvested in cold phosphate buffered saline containing 1 mM dithiothreitol, 1 mM phenylmethylsulfonyl fluoride, 5 μg/ml leupeptin, 5 μg/ml pepstatin A and 5 μg/ml aprotinin, and solubilized in buffer containing 1% Triton X-100, 0.15 M NaCl, 0.5 mM EDTA, 1% sodium deoxycholate, 0.1% SDS, 50 mM Tris-HCl, pH 7.4 and protease inhibitors listed above. […] Protein concentration was determined by BioRad assay using bovine serum albumin as standard.

[6] = system: PR-B; assay: PR immunoblot in Ishikawa cells; format: cell-based, human; details: 10 nM E2 for 48 h
Procedure: as §2

[7] = system: MAGE-11 protein; assay: MAGE-11 immunoblot in Ishikawa cells; format: cell-based, human; details: 10 nM E2, 48 h
Procedure: as §2

[8] = system: MAGE-11 mRNA; assay: MAGE-11 mRNA by real time RT-PCR in LNCaP cells; format: cell-based, human

Molecule: C[C@]12CCC(=O)C[C@@H]1CC[C@@H]1[C@@H]2CC[C@]2(C)[C@@H](O)CC[C@@H]12 [DHT, dihydrotestosterone]
- change in MAGE-11 mRNA levels ([1]; ECC-1 cells): unchanged
- change in MAGE-11 mRNA levels [2]: unchanged
- effect on MAGE-11 protein levels [3]: declined

Molecule: C[C@]12CC[C@@H]3c4ccc(O)cc4CC[C@H]3[C@@H]1CC[C@@H]2O [E2, 17β-estradiol]
- time required for inhibitory effect on MAGE-11 mRNA ([1]; ECC-1 cells): more than 6 h
- effect on increase in MAGE-11 mRNA levels during culture ([1]; ECC-1 cells, 0.01 nM E2, dose response, 48 h): partial inhibition
- effect on increase in MAGE-11 mRNA levels during culture ([1]; ECC-1 cells, 10 nM E2, 72 h culture in phenol red-free, charcoal stripped serum medium): blocked
- effect on cAMP induced increase in MAGE-11 mRNA ([1]; ECC-1 cells, 10 nM E2 with 2 mM dibutyryl-cAMP, greater extent than in Ishikawa cells): inhibited
- concentration required to partially inhibit MAGE-11 expression relative to that required to increase AR expression (fold less) ([1]; endometrial cell lines): ~100 fold
- effect on cAMP induced increase in MAGE-11 mRNA ([2]; 10 nM E2 with dibutyryl-cAMP, 48 h, lesser extent than in ECC-1 cells): inhibited
- increase in AR mRNA levels ([4]; 10 nM E2): ~3 fold
- E2 concentration required to increase AR mRNA ([4]; dose response, 48 h): 1 nM
- effect on PR-B levels [5]: increased
- effect on PR-B levels [6]: increased
- effect on ~67 kDa MAGE-11 protein level [7]: declined
- effect on cyclic-AMP induction of MAGE-11 mRNA [8]: not inhibited

Molecule: C[C@]12CC[C@@H]3c4ccc(O)cc4C[C@@H](CCCCCCCCC[S+]([O-])CCCC(F)(F)C(F)(F)F)[C@H]3[C@@H]1CC[C@@H]2O (stereo partly shown) [ICI-182,780]
- effect on MAGE-11 mRNA levels ([1]; ECC-1 cells, 1 μM ICI-182,780 in the absence and presence of E2 (0.1 nM), 48 h): increased
- effect on E2 induced increase in AR mRNA ([4]; 1 μM ICI-182,780): blocked

Molecule: C=C[C@@]1(C)CC(=O)[C@]2(O)[C@@]3(C)[C@@H](O)CCC(C)(C)[C@@H]3[C@H](O)[C@H](OC(C)=O)[C@@]2(C)O1 [forskolin]
- increase in MAGE-11 mRNA levels ([1]; ECC-1 cells, 50 μM): ~4 fold
- increase in MAGE-11 mRNA levels ([2]; 50 μM): ~4 fold

Molecule: CC(=O)[C@H]1CC[C@H]2[C@@H]3CCC4=CC(=O)CC[C@]4(C)[C@H]3CC[C@]12C [progesterone]
- MAGE-11 mRNA with progesterone after E2 pretreatment ([1]; ECC-1 cells, pretreatment with 10 nM E2 for 48 h (data not shown)): no increase
- change in MAGE-11 mRNA levels ([1]; ECC-1 cells): unchanged
- change in MAGE-11 mRNA levels [2]: unchanged
- MAGE-11 mRNA with progesterone after E2 pretreatment ([2]; pretreatment with 10 nM E2 for 48 h (data not shown)): no increase

Molecule: EGF: EGF growth factor, used at 10 ng/ml
- change in MAGE-11 mRNA levels ([1]; ECC-1 cells): unchanged
- change in MAGE-11 mRNA levels [2]: unchanged
